pEC50: −log10 of the molar value.
The molecules below were run against T1, human GPR40 (Homo sapiens, UniProt O14842) (assay: Inositol Phosphate Turnover (IP1) Assay). Conditions: HEK cells stably expressing human GPR40; 60 min incubation.
T1 construct: expressed in transfected cells
T1 sequence (O14842 whole entry): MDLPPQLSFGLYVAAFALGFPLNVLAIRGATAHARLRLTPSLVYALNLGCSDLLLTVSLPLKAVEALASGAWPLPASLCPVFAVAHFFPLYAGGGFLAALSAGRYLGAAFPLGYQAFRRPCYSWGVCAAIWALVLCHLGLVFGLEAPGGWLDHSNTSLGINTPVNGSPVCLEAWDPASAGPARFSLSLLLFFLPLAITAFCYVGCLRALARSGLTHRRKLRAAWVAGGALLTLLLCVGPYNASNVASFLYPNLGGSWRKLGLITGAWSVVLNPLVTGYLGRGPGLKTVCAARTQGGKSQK
Type: cell-based
Method: Human GPR40 stable cell-lines were generated in HEK cells. The expression plasmids were transfected using lipofectamine (Life Technologies) following manufacturer's instructions. Stable cell-lines were generated following drug selection and single cell cloning. The assay was performed in 384-well format. HEK cells stably expressing human GPR40 were plated at 7500 cells per well in growth medium (DMEM/10% fetal calf serum). Cell plates were then incubated 16 hours at 37 degrees in a 5% CO2 incubator. Measurement of Inositol Phosphate Turnover (IP1) was performed using the CisBio IP-One kit (Part number 62IPAPEB). After the 16 hour incubation, the growth media was removed by centrifugation using the BlueWasher (AusWasher GUI Ver. v1.0.1.8) Protocol #21-“Light Dry” and 10 ul of stimulation buffer (prepared as described in the kit) was added to each well. In a separate plate, compounds were diluted in DMSO (200-fold over the final concentration in the assay well) and 50 nl was acoustically transferred to the appropriate well in the assay cell plate. The plates were then incubated for 60 minutes at 37 degrees in a 5% CO2 incubator. 10 ul of detection buffer (also prepared as described in the IP-One kit) was added to each well and the plates were incubated at room temperature for 60 minutes in the dark. The plates were then read in a Perkin Elmer EnVision or equivalent reader able to measure FRET. Fluorescent ratio of emission at 665 and 620 nm was then converted to IP1 concentration by back calculating from an IP1 standard curve prepared at the time of the assay. Data were normalized to % activity using a reference compound and EC50s determined using a standard 4-parameter fit.
Molecule COc1cc(-c2cnc([C@@H]3CCc4ccc([C@H](C5CC5)[C@H](C)C(=O)O)cc4O3)c(C)n2)c(Cl)cn1 (single isomer, unassigned) [Example 1] has a pEC50 of 9.22.
With COc1cc(-c2cnc([C@H]3CCc4ccc([C@H](C5CC5)[C@H](C)C(=O)O)cc4O3)c(C)n2)c(Cl)cn1 (single isomer, unassigned) [Example 2] the pEC50 was 8.89.
Work on CCOc1cc(-c2ncc(C3CCc4ccc([C@H](C5CC5)[C@H](C)C(=O)O)cc4O3)nc2C)c(F)cn1 (single isomer, unassigned) [Example 3] yielded a pEC50 of 8.11.
Work on CCOc1cc(-c2ncc(C3CCc4ccc([C@H](C5CC5)[C@H](C)C(=O)O)cc4O3)nc2C)c(F)cn1 (single isomer, unassigned) [Example 4] yielded a pEC50 of 8.16.
Work on COc1cc(-c2ncc(C3CCc4ccc([C@H](C5CC5)[C@H](C)C(=O)O)cc4O3)nc2C)c(Cl)cn1 (single isomer, unassigned) [Example 5] yielded a pEC50 of 7.95.
COc1cc(-c2ncc(C3CCc4ccc([C@H](C5CC5)[C@H](C)C(=O)O)cc4O3)nc2C)c(Cl)cn1 (single isomer, unassigned) [Example 6] was tested, and the pEC50 was 8.48.
In the case of Cc1nc(-c2cc(OCC(F)F)ncc2F)cnc1C1CCc2ccc([C@H](C3CC3)[C@H](C)C(=O)O)cc2O1 (single isomer, unassigned) [Example 7], the pEC50 was 9.05.
With Cc1nc(-c2cc(OCC(F)F)ncc2F)cnc1C1CCc2ccc([C@H](C3CC3)[C@H](C)C(=O)O)cc2O1 (single isomer, unassigned) [Example 8] the pEC50 was 9.00.
In the case of CCOc1cc(-c2cnc(C3CCc4ccc([C@H](C5CC5)[C@H](C)C(=O)O)cc4O3)c(C)n2)c(F)cn1 (single isomer, unassigned) [Example 9], the pEC50 was 9.15.
COc1cc(-c2ncc(C3CCc4ccc([C@H](C5CC5)[C@H](C)C(=O)O)cc4O3)nc2C)c(Cl)cn1 (single isomer, unassigned) [Example 13] showed a pEC50 of 8.39.
For COc1cc(-c2ncc(C3CCc4ccc([C@H](C5CC5)[C@H](C)C(=O)O)cc4O3)nc2C)c(Cl)cn1 (single isomer, unassigned) [Example 14], the pEC50 was 7.86.
With COc1cc(-c2ncc(C3CCc4ccc([C@H](C5CC5)[C@H](C)C(=O)O)c(F)c4O3)nc2C)c(F)cn1 (single isomer, unassigned) [Example 15] the pEC50 was 8.52.
COc1cc(-c2ncc(C3CCc4ccc([C@H](C5CC5)[C@H](C)C(=O)O)c(F)c4O3)nc2C)c(F)cn1 (single isomer, unassigned) [Example 16] gave a pEC50 of 8.18.
Work on COc1cc(-c2cnc(C3CCc4ccc([C@H](C5CC5)[C@H](C)C(=O)O)c(F)c4O3)c(C)n2)c(F)cn1 (single isomer, unassigned) [Example 17] yielded a pEC50 of 9.52.
COc1cc(-c2cnc(C3CCc4ccc([C@H](C5CC5)[C@H](C)C(=O)O)c(F)c4O3)c(C)n2)c(F)cn1 (single isomer, unassigned) [Example 18] gave a pEC50 of 8.38.
Work on CCOc1cc(-c2cnc(C3CCc4ccc([C@H](C5CC5)[C@H](C)C(=O)O)c(F)c4O3)c(C)n2)c(F)cn1 (single isomer, unassigned) [Example 19] yielded a pEC50 of 8.96.
Work on CCOc1cc(-c2cnc(C3CCc4ccc([C@H](C5CC5)[C@H](C)C(=O)O)c(F)c4O3)c(C)n2)c(F)cn1 (single isomer, unassigned) [Example 20] yielded a pEC50 of 9.40.
With COc1cc(-c2cnc(C3CCc4ccc([C@H](C5CC5)[C@H](C)C(=O)O)c(F)c4O3)c(C)n2)c(Cl)cn1 (single isomer, unassigned) [Example 21] the pEC50 was 9.52.
With COc1cc(-c2cnc(C3CCc4ccc([C@H](C5CC5)[C@H](C)C(=O)O)c(F)c4O3)c(C)n2)c(Cl)cn1 (single isomer, unassigned) [Example 22] the pEC50 was 8.80.
COc1cc(-c2cnc(C3CCc4ccc([C@H](C5CC5)[C@H](C)C(=O)O)cc4O3)c(C)n2)c(C)cn1 (single isomer, unassigned) [Example 25] showed a pEC50 of 8.09.
In the case of COc1cc(-c2cnc(C3CCc4ccc([C@H](C5CC5)[C@H](C)C(=O)O)cc4O3)c(C)n2)c(C2CC2)cn1 (single isomer, unassigned) [Example 26], the pEC50 was 8.27.
CCOc1cc(-c2ncc([C@H]3CCc4ccc([C@H](C5CC5)[C@H](C)C(=O)O)c(F)c4O3)nc2C)c(F)cn1 [Example 11, (2S,3R)-3-cyclopropyl-3-((R)-2-(5-(2-ethoxy-5-fluoropyridin-4-yl)-6-methylpyrazin-2-yl)-8-fluorochroman-7-yl)-2-methylpropanoic acid] was tested, and the pEC50 was 8.46.
Work on CCOc1cc(-c2ncc([C@@H]3CCc4ccc([C@H](C5CC5)[C@H](C)C(=O)O)c(F)c4O3)nc2C)c(F)cn1 [Example 12, (2S,3R)-3-cyclopropyl-3-((S)-2-(5-(2-ethoxy-5-fluoropyridin-4-yl)-6-methylpyrazin-2-yl)-8-fluorochroman-7-yl)-2-methylpropanoic Acid] yielded a pEC50 of 8.37.
CCc1nc([C@H]2CCc3ccc([C@H](C4CC4)[C@H](C)C(=O)O)cc3O2)cnc1-c1cc(OC)ncc1F [Example 23, (2S,3R)-3-cyclopropyl-3-((R)-2-(6-ethyl-5-(5-fluoro-2-methoxypyridin-4-yl)pyrazin-2-yl)chroman-7-yl)-2-methylpropanoic acid] gave a pEC50 of 8.19.
Molecule CCc1nc([C@@H]2CCc3ccc([C@H](C4CC4)[C@H](C)C(=O)O)cc3O2)cnc1-c1cc(OC)ncc1F [Example 24, (2S,3R)-3-cyclopropyl-3-((S)-2-(6-ethyl-5-(5-fluoro-2-methoxypyridin-4-yl)pyrazin-2-yl)chroman-7-yl)-2-methylpropanoic Acid] has a pEC50 of 8.64.
COc1cc(-c2cnc([C@H]3C[C@H](OC)c4ccc([C@H](C5CC5)[C@H](C)C(=O)O)cc4O3)cn2)c(F)cn1 [Example 27, (2S,3R)-3-cyclopropyl-3-{(2R,4S)-2-[5-(5-fluoro-2-methoxypyridin-4-yl)pyrazin-2-yl]-4-methoxy-3,4-dihydro-2H-chromen-7-yl}-2-methylpropanoic Acid] was tested, and the pEC50 was 8.77.
